target: hFXR (Homo sapiens (Human), UniProt Q96RI1); experiment: In Vitro FXR Assay (TK), luciferase reporter in transfected CV-1 cells; assay type: cell-based; conditions: TK-ECRE-luc reporter, hFXR/hRXR, 18 hrs, maximum efficacy <25% of Fexaramine control classified as '+'
Procedure: CV-1 cells were seeded at a density of 2,000,000 cells in a T175 flask with DMEM+10% charcoal double-stripped FBS and incubated at 37° C. in 5% CO2 for 18 h (O/N).
After 18 h of incubation, the medium in the T175 flask was changed with fresh DMEM+10% charcoal super-stripped serum. In a polypropylene tube, 2500 μL OptiMEM (Life Technologies, Cat #31985-062) was combined with expression plasmids for hFXR, hRXR, TK-ECRE-luc and pCMX-YFP. The tube was then briefly vortexed and incubated at room temperature for 5 minutes. Transfection reagent (X-tremeGENE HP from Roche, Cat #06 366 236 001) was added to the OptiMEM/plasmid mixture vortexed and incubated at room temperature for 20 minutes. Following incubation, the transfection reagent/DNA mixture complex was added to cells in the T175 flask and the cells were incubated at 37° C. in 5% CO2 for 18 h (O/N).
Compounds were serially diluted in DMSO and added to transfected CV-1 cells. The cells were then incubated for 18 hrs. The next day cells were lysed and examined for luminescence.

hFXR, sequence (Q96RI1 whole entry): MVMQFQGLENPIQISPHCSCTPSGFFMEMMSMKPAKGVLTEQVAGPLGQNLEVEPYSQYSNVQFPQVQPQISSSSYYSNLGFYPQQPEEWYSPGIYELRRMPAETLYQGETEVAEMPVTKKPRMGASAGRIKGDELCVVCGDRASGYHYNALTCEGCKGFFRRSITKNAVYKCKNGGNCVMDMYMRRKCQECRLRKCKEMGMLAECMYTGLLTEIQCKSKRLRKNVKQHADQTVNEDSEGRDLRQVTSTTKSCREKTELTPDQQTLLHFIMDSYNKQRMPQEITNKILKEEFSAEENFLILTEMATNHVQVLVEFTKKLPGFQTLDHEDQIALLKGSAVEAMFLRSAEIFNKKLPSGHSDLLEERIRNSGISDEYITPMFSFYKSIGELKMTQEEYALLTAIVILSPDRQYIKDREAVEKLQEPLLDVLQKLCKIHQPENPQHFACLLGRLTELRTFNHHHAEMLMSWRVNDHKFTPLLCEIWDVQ
hFXR, sequence (P19793 whole entry partner): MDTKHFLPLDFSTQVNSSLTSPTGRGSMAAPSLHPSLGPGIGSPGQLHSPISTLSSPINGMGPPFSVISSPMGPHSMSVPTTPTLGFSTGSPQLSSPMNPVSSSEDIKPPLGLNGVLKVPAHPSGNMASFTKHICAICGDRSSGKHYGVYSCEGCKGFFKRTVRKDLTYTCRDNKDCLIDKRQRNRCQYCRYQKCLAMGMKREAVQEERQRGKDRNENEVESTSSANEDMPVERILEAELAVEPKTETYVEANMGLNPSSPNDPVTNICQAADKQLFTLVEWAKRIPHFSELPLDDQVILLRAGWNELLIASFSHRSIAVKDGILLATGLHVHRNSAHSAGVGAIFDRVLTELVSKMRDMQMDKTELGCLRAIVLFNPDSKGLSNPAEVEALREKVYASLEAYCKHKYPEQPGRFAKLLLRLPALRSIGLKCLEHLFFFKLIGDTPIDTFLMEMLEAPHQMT

Row | EC50 [nM] | Compound
1 | 1000 to 10000 | COC(=O)c1ccc2c(N(Cc3ccc(-c4ccc(OC(F)F)cc4)cc3)C(=O)CC(C)(C)C)nccc2c1 [Compound 57, Methyl 1-(N-((4′-(difluoromethoxy)-[1,1′-biphenyl]-4-yl)methyl)-3,3-dirnethylbutanamido)isoquinoline-6-carboxylate]
2 | ≤ 1000 | COCc1ccc(-c2ccc(CN(C(=O)CC(C)(C)C)c3nccc4cc(C(=O)OC)ccc34)cc2)cc1 [Compound 58, Methyl 1-(N-((4′-(methoxymethyl)-[1,1′-biphenyl]-4-yl)methyl)-3,3-dimethylbutanamido)isoquinoline-6-carboxylate]
3 | 1000 to 10000 | COCCOc1ccc(-c2ccc(CN(C(=O)CC(C)(C)C)c3nccc4cc(C(=O)OC)ccc34)cc2)cc1 [Compound 59, Methyl 1-(N-((4′-(2-methoxyethoxy)-[1,1-biphenyl]-4-yl)methyl)-3,3-dimethylbutanamido)isoquinoline-6-carboxylate]
4 | 1000 to 10000 | COC(=O)c1ccc2c(N(Cc3ccc(-c4ccc(OCCO)cc4)cc3)C(=O)CC(C)(C)C)nccc2c1 [Compound 60, Methyl 1-(N′-((4′-(2-hydroxyethoxy)-[1,1′-biphenyl]-4-yl)methyl)-3,3-dimethylbutanamido)isoquinoline-6-carboxylate]
5 | ≤ 1000 | COC(=O)c1ccc2c(N(Cc3ccc(-c4ccc(CCO)cc4)cc3)C(=O)CC(C)(C)C)nccc2c1 [Compound 61, Methyl 1-(N-((4′-(2-hydroxyethyl)-[1,1′-biphenyl]-4-yl)methyl)-3,3-dimethylbutanamido)isoquinoline-6-carboxylate]
6 | ≤ 1000 | COCCc1ccc(-c2ccc(CN(C(=O)CC(C)(C)C)c3nccc4cc(C(=O)OC)ccc34)cc2)cc1 [Compound 62, Methyl 1-(N-((4′-(2-methoxyethyl)-[1,1′-biphenyl]-4-yl)methyl)-3,3-dimethylbutanamido)isoquinoline-6-carboxylate]
7 | ≤ 1000 | COC(=O)c1ccc2c(N(Cc3ccc(-c4ccc5c(c4)CCN5)cc3)C(=O)CC(C)(C)C)nccc2c1 [Compound 63, Methyl 1-(N-(4-(indolin-5-yl)benzyl)-3,3-dimethylbutanamido)isoquinoline-6-carboxylate]
8 | ≤ 1000 | COC(=O)c1ccc2c(N(Cc3ccc(-c4ccc5c(c4)CCN5C)cc3)C(=O)CC(C)(C)C)nccc2c1 [Compound 64, Methyl 1-(3,3-dimethyl-N-(4-(1-methylindolin-5-yl)benzyl)butanamido)isoquinoline-6-carboxylate]
9 | ≤ 1000 | COC(=O)c1ccc2c(N(Cc3ccc(-c4ccc(OC)c(Cl)c4)cc3)C(=O)[C@H]3CC[C@H](O)CC3)nccc2c1 [Compound 66, Methyl 1-(trans-N-((3′-chloro-4′-methoxy-[1,1′-biphenyl]-4-yl)methyl)-4-hydroxycyclohexanecarboxamido) isoquinoline-6-carboxylate]
10 | 1000 to 10000 | COC(=O)c1ccc2c(N(Cc3ccc(-c4ccc(OC)c(C#N)c4)cc3)C(=O)[C@H]3CC[C@H](O)CC3)nccc2c1 [Compound 67, Methyl 1-(trans-N-((3′-cyano-4′-methoxy-[1,1′-biphenyl]-4-yl)methyl)-4-hydroxycyclohexanecarboxamido) isoquinoline-6-carboxylate]
11 | ≤ 1000 | COc1ccc(-c2ccc(CN(C(=O)CC(C)(C)C)c3nccc4cc(C(=O)OC(C)C)ccc34)cc2)cc1C#N [Compound 68, Isopropyl 1-(N-((3′-cyano-4′-methoxy-[1,1′-biphenyl]-4-yl)methyl)-3,3-dimethylbutanamido) isoquinoline-6-carboxylate]
12 | ≤ 1000 | COc1ccc(-c2ccc(CN(C(=O)CC(C)(C)C)c3nccc4cc(C(=O)OC(C)C)ccc34)cc2)cc1C [Compound 69, Isopropyl 1-(N-((4′-methoxy-3′-methyl-[1,1′-biphenyl]-4-yl)methyl)-3,3-dimethylbutanamido)isoquinoline-6-carboxylate]

Further lines, the compound ahead of its results:

Row | Compound | EC50 [nM]
13 | COC(=O)c1ccc2c(N(Cc3ccc(-c4ccc(C)nc4)cc3)C(=O)CC(C)(C)C)nccc2c1 [Compound 39, Methyl 1-(3,3-dimethyl-N-(4-(6-methylpyridin-3-yl)benzyl)butanamido)isoquinoline-6-carboxylate] | 1000 to 10000
14 | COC(=O)c1ccc2c(N(Cc3ccc(-c4ccc(C5CC5)cc4)cc3)C(=O)CC(C)(C)C)nccc2c1 [Compound 40, Methyl 1-(N-((4′-cyclopropyl-[1,1′-biphenyl]-4-yl)methyl)-3,3-dimethylbutanamido)isoquinoline-6-carboxylate] | ≤ 1000
15 | COC(=O)c1ccc2c(N(Cc3ccc(-c4ccc(OC(F)(F)F)c(Cl)c4)cc3)C(=O)CC(C)(C)C)nccc2c1 [Compound 41, Methyl 1-(N-((3′-chloro-4′-(trifluoromethoxy)-[1,1′-biphenyl]-4-yl)methyl)-3,3-dimethylbutanamido)isoquinoline-6-carboxylate] | ≤ 1000
16 | COC(=O)c1ccc2c(N(Cc3ccc(-c4ccc(C#N)c(C)c4)cc3)C(=O)CC(C)(C)C)nccc2c1 [Compound 42, Methyl 1-(N-((4′-cyano-3′-methyl-[1,1′-biphenyl]-4-yl)methyl)-3,3-dimethylbutanamido)isoquinoline-6-carboxylate] | ≤ 1000
17 | COC(=O)c1ccc2c(N(Cc3ccc(-c4ccc(CO)cc4)cc3)C(=O)CC(C)(C)C)nccc2c1 [Compound 43, Methyl 1-(N-((4′-(hydroxymethyl)-[1,1′-biphenyl]-4-yl)methyl)-3,3-dimethylbutanamido)isoquinoline-6-carboxylate] | 1000 to 10000
18 | COC(=O)c1ccc2c(N(Cc3ccc(-c4ccc5c(ccn5C)c4)cc3)C(=O)CC(C)(C)C)nccc2c1 [Compound 44, Methyl 1-(3,3-dimethyl-N-(4-(1-methyl-1H-indol-5-yl)benzyl)butanamido)isoquinoline-6-carboxylate] | ≤ 1000
19 | COC(=O)c1ccc2c(N(Cc3ccc(-c4ccc(OC)cc4)cc3)C(=O)CC(C)(C)C)nccc2c1 [Compound 45, Methyl 1-(N′-((4′-methoxy-[1,1′-biphenyl]-4-yl)methyl)-3,3-dimethylbutanamido)isoquinoline-6-carboxylate] | ≤ 1000
20 | COC(=O)c1ccc2c(N(Cc3ccc(-c4ccc5c(c4)CCO5)cc3)C(=O)CC(C)(C)C)nccc2c1 [Compound 46, Methyl 1-(N′-(4-(2,3-dihydrobenzofuran-5-yl)benzyl)-3,3-dimethylbutanamido)isoquinoline-6-carboxylate] | ≤ 1000
21 | COC(=O)c1ccc2c(N(Cc3ccc(-c4ccc5c(c4)OCC5)cc3)C(=O)CC(C)(C)C)nccc2c1 [Compound 47, Methyl 1-(N-(4-(2,3-dihydrobenzofuran-6-yl)benzyl)-3,3-dimethylbutanamido)isoquinoline-6-carboxylate] | ≤ 1000
22 | COC(=O)c1ccc2c(N(Cc3ccc(-c4ccc5c(c4)OCCO5)cc3)C(=O)CC(C)(C)C)nccc2c1 [Compound 48, Methyl 1-(N-(4-(2,3-dihvdrobenzo[b][1,4]dioxin-6-yl)benzyl)-3,3-dimethylbutanamido)isoquinoline-6-carboxylate] | ≤ 1000
23 | COC(=O)c1ccc2c(N(Cc3ccc(-c4cnc5c(ccn5C)c4)cc3)C(=O)CC(C)(C)C)nccc2c1 [Compound 49, Methyl 1-(3,3-dimethyl-N-(4-(1-methyl-1H-pyrrolo[2,3-b]pyridin-5-yl)benzyl)butanamido)isoquinoline-6-carboxylate] | ≤ 1000
24 | COC(=O)c1ccc2c(N(Cc3ccc(-c4ccc5sc(C)nc5c4)cc3)C(=O)CC(C)(C)C)nccc2c1 [Compound 50, Methyl 1-(3,3-dimethyl-N-(4-(2-methylbenzo[d]thiazol-5-yl)benzyl)butanamido)isoquinoline-6-carboxylate] | 1000 to 10000
25 | COC(=O)c1ccc2c(N(Cc3ccc(-c4ccc5c(c4)CCN5C(=O)OC(C)(C)C)cc3)C(=O)CC(C)(C)C)nccc2c1 [Compound 51, Methyl 1-(N-(4-(1-(tert-butoxycarbonyl)indolin-5-yl)benzyl)-3,3-dimethylbutanamido)isoquinoline-6-carboxylate] | ≥ 10000
26 | CCOc1ccc(-c2ccc(CN(C(=O)CC(C)(C)C)c3nccc4cc(C(=O)OC)ccc34)cc2)cc1 [Compound 52, Methyl 1-(N-((4′-ethoxy-[1,1′-biphenyl]-4-yl)methyl)-3,3-dimethylbutanamido)isoquinoline-6-carboxylate] | 1000 to 10000
27 | CCc1ccc(-c2ccc(CN(C(=O)CC(C)(C)C)c3nccc4cc(C(=O)OC)ccc34)cc2)cc1 [Compound 53, Methyl 1-(N-((4′-ethyl-[1,1′-biphenyl]-4-yl)methyl)-3,3-dimethylbutanamido)isoquinoline-6-carboxylate] | ≤ 1000
28 | COC(=O)c1ccc2c(N(Cc3ccc(-c4ccc(F)c(OC)c4)cc3)C(=O)CC(C)(C)C)nccc2c1 [Compound 54, Methyl 1-(N-((4′-fluoro-3′-methoxy-[1,1′-biphenyl]-4-yl)methyl)-3,3-dimethylbutanamido)isoquinoline-6-carboxylate] | 1000 to 10000
29 | COC(=O)c1ccc2c(N(Cc3ccc(-c4ccc(C)c(Cl)c4)cc3)C(=O)CC(C)(C)C)nccc2c1 [Compound 55, Methyl 1-(N-((3′-chloro-4′-methyl-[1,1′-biphenyl]-4-yl)methyl)-3,3-dimethylbutanamido)isoquinoline-6-carboxylate] | ≤ 1000
30 | COC(=O)c1ccc2c(N(Cc3ccc(-c4ccc(C(F)F)cc4)cc3)C(=O)CC(C)(C)C)nccc2c1 [Compound 56, Methyl 1-(N-((4′-(difluoromethyl)-[1,1′-biphenyl]-4-yl)methyl)-3,3-dimethylbutanamido)isoquinoline-6-carboxylate] | ≤ 1000

From US10377717B2, “Farnesoid X receptor agonists and uses thereof” (Metacrine, Inc., priority 2015, dated 2019)
